Bridge positions count the residues as written; N and C are the ends. Primed or numbered codes have the meaning given here. Ends that are not written are not given here. FITC′ = fluorescein isothiocyanate label; Cy5 = Cy5 dye label
Columns and labels:
[1] = system: human breast cancer MDA-MB-231 cells; assay: Confocal laser scanning microscopy (immunofluorescence) of biotin peptide binding to cells; type: cell-based; details: MDA-MB-231 versus human normal breast MCF-10A cells
Excerpt: The binding of Biotin-C (Biotin-SEQ ID NO:2) and Biotin-S3 (Biotin-SEQ ID NO:1) polypeptide to human breast cancer MDA-MB-231 cells was detected by confocal laser scanning microscopy. Meanwhile, the inventors compared it with the binding of the above polypeptides to human normal breast MCF-10A cells. The particular experimental procedure was as follows:
1) digesting cells with trypsin and plating the cells in a 24-well plate provided with a slide, 1×10^5/well;
2) adding Biotin-C (Biotin-SEQ ID NO:2), Biotin-S3 (Biotin-SEQ ID NO:1) polypeptide to the cells, 200 μg/well, and incubating at 37° C. for 2 h;
3) discarding the cell incubation solution;
4) fixing the cells with 4% paraformaldehyde for 10 min;
5) washing five times with 0.1% PBST, 500 μl/well, and washing off unbound polypeptides;
6) destroying the membranes with 0.1% Triton, and washing once with PBST, 500 μl/well;
7) blocking with 5% BSA, 30 min;
8) adding anti-Biotin Streptavidin (1:1000) into the wells, and incubating at 4° C. for 12 h;
9) washing three times with 0.1% PBST, 5 min/time;
10) adding anti-Streptavidin conjugated FITC (1:1000) into the wells, and incubating at room temperature for 45 min;
11) washing three times with 0.1% PBST, 5 min/time;
12) staining cell membranes with WGA (1:1000), and incubating at room temperature for 10 min;
13) washing three times with 0.1% PBST, 5 min/time; […]

[2] = system: breast cancer MDA-MB-231 cells; assay: Polypeptide blocking experiment (ELISA on cells); type: cell-based, human; details: 5, 10, 20 μg/μl S3 polypeptide
Method: An enzyme-linked immunosorbent assay was used to detect the binding of S3 phage to breast cancer MDA-MB-231 cells, and then to detect whether […] could block the binding of […] to breast cancer MDA-MB-231 cells. The specific procedure was as follows:
2) digesting cells with trypsin, counting, and uniformly plating the cells in a 96-well plate, 1×10^4/well;
3) in the blocking experiment, adding 5, 10, 20 μg/μl S3 polypeptide and incubating at 37° C. for 1 h;
4) in the targeting experiment, adding phages in a concentration gradient of 1.0×10^9, 2.0×10^9, 4.0×10^9, 8.0×10^9, […] pfu/well, incubating at 37° C. for 2 h for binding; in the blocking experiment, adding 20 μg/μl of Biotin-S3 polypeptide;
5) discarding the cell incubation solution;
6) fixing the cells with 4% paraformaldehyde for 10 min;
7) washing five times with 0.1% PBST, 270 μl/well;
8) destroying the membranes with 0.1% Triton, and washing once with PBST, 270 μl/well;
9) blocking with 5% BSA for 30 min;
10) adding 1:1000 diluted anti-M13 conjucted HRP by 50 μl/well, and incubating at room temperature for 1 h;
11) washing five times with 0.1% PBST;
12) developing color with a TMB kit; and 13) reading at OD 450 nm by a microplate reader.

[3] = system: breast cancer MDA-MB-231 cells; assay: Flow cytometry binding of fluorescent peptide to cells; type: cell-based, human; details: 10 μM, on ice 20 min, FIG. 1C
Method: The binding of FITC-S3 (SEQ ID NO:3) fluorescent peptide to breast cancer MDA-MB-231 cells was detected by flow cytometry. The inventors first synthesized a fluorescent peptide in which the […] and Con peptide were conjugated to a fluorescent dye FITC, and then incubated FITC-S3 (SEQ ID NO:3) fluorescent peptide with the cells, and finally detected the binding thereof by flow cytometry. The particular experimental procedure was as follows:
1) digesting cells with trypsin, counting, and adjusting the concentration thereof to be 1.0×10^6 cells/tube, resuspending the cells with 100 μl serum-free 1640 medium;
2) adding FITC-C or […] in PBS (10 μM), and incubating the cells on ice for binding for 20 min;
3) washing three times with 0.1% PBST, 1 ml/time, and centrifuging at 400 g for 5 min;
4) resuspending the cells with 500 μl PBS; and
5) detecting by flow cytometry.

[4] = system: esophageal cancer KYSE30 tumor; assay: Infrared fluorescent molecular imaging of esophageal cancer tumor-bearing mice; type: in vivo; details: 48 hours after tail vein injection, FIGS. 2D, 2E
Excerpt: (§1) According to the above procedure, the Cy5-S3 (Cy5-SEQ ID NO:1) fluorescent peptides were applied in esophageal cancer KYSE30 tumor-bearing and nasopharyngeal carcinoma CNE2 mouse models, in order to detect whether Cy5-S3 (Cy5-SEQ ID NO:1) fluorescent peptide can be imaged with infrared fluorescent molecular imaging in other tumors.

[5] = system: nasopharyngeal carcinoma CNE2 tumor; assay: Infrared fluorescent molecular imaging of nasopharyngeal carcinoma mouse model; type: in vivo, mice; details: 48 hours after tail vein injection, FIG. 2F
Excerpt: as §1

[6] = system: breast cancer MDA-MB-231 tumors; assay: Infrared fluorescent molecular imaging of breast cancer tumor-bearing mice; type: in vivo
Excerpt: Tumor-bearing mice were used for the infrared fluorescence molecular imaging experiment to detect the distribution of Cy5-S3 (Cy5-SEQ ID NO:1) fluorescent peptide in various organs and tumors of the tumor-bearing mice. The experimental procedure of the imaging experiment of small living animals was as follows: 1) taking out nine male NOD SCID mice of 4-week old; 2) digesting breast cancer MDA-MB-231 cells with trypsin, counting, and adjusting the concentration to be 5.0×10^7 cells/ml, resuspending the cells with 20% Matrigel DMEM, and injecting with 200 μl/mouse; 3) observing tumor formation for 1-2 weeks, measuring the sizes of the tumors, and randomizing the mice into three groups according to the sizes of the tumors, i.e. […] 4) dissolving 300 μg fluorescent peptides in 200 μl PBS, injecting the fluorescent peptides into the tail veins of the mice, and dynamically detecting the distribution of the fluorescent peptides in various organs and tumors of the nude mice by using a small living animal imaging instrument. 5) taking out every organ and tumor, homogenizing, measuring the fluorescence intensity of each organ and tumor, and making statistical analysis.

## CSISSLTHC [Peptide S3, ATP1A1-targeting polypeptide, SISSLTH motif with Cys at both terminals]
[1]
  targeting of breast cancer cells compared to normal breast MCF-10A cells: obvious property of targeting breast cancer cells
[2]; 20 μg/μl Biotin-S3, FIG. 1B
  blocking of the binding of Biotin-S3 polypeptide to breast cancer cells: can block the binding
[2]; FIG. 1B
  concentration dependence of the blocking effect: concentration-dependent

## CSISSLTHC-GGGS-FITC (CSISSLTHCGGGS-{FITC′}; disulfide 1-9 (inferred)) [FITC-S3, S3 peptide conjugated to fluorescent dye FITC]
[3]
  binding ability to breast cancer MDA-MB-231 cells versus FITC-control fluorescent peptide: stronger than that of FITC-control fluorescent peptide

## Cy5-CSISSLTHC (disulfide 1-9 (inferred)) [Cy5-S3, Cy5 fluorescent S3 peptide]
[4]
  infrared fluorescent molecular imaging of esophageal cancer: can also be used for the infrared fluorescent molecular imaging
[5]
  infrared fluorescent molecular imaging of nasopharyngeal carcinoma: can also be used for the infrared fluorescent molecular imaging
[6]; 48 hours after tail vein injection, FIG. 2C
  content of fluorescent peptide in unit weight of the tumor versus other organs: significantly higher than that in other organs
[6]; mouse, in vivo
  enrichment in tumor by tissue analysis of dissected mice: significantly enriched in the tumor
  enrichment in tumors by infrared imaging of the living mice: obviously enriched in the tumors

— patent US20210017231A1, “ATP1A1-TARGETING POLYPEPTIDE AND USE THEREOF” (SUN YAT-SEN UNVIERSITY CANCER CENTER (SYSUCC), priority 2017, published 2021)
